Drawing on PubChem BioAssay AID298 (DTP/NCI, 2004), this text covers T/C for 24 compounds.

SMILES strings stand for the structures. Values joined by “and” are separate entries in the source; they are usually repeats but may differ in a detail not shown here. Identical values can stand only once. Inconclusive results are not listed.

The subject of this test is MX-1 breast xenograft, intrarenal, nude mice, tumor weight. As to the kind of experiment: NCI In Vivo Anticancer Drug Screen. Data for tumor model Human Mammary Carcinoma MX-1 Xenograft (intrarenal inoculation) in NU/NU BALB/C (nude) mice. The note with it: endpoint: mean tumor weight change, higher = larger tumour. The method in brief:
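T/C readout: treated-group measurement over vehicle-control measurement, using tumor size or survival in tumor-bearing mice.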
(Xenograft models place foreign cells or tissue in a host animal.)

The mark [1] stands for this setting: dose: 50.0 mg/kg/injection, schedule: Q04DX003 (ip), vehicle: saline with Tween-80.
[2] abbreviates: dose: 100.0 mg/kg/injection, schedule: Q04DX003 (ip), vehicle: saline with Tween-80.
[3] abbreviates: dose: 200.0 mg/kg/injection, schedule: Q04DX003 (sc), vehicle: saline.
Setting [4] is: dose: 400.0 mg/kg/injection, schedule: Q04DX003 (sc), vehicle: saline.
[5] abbreviates: dose: 300.0 mg/kg/injection, schedule: Q04DX003 (sc), vehicle: saline with Tween-80.
Where [6] appears, read: dose: 600.0 mg/kg/injection, schedule: Q04DX003 (sc), vehicle: saline with Tween-80.
The mark [7] stands for this setting: dose: 15.0 mg/kg/injection, schedule: Q04DX003 (sc), vehicle: Klucel (hydroxypropylcellulose) (HPC).
Where [8] appears, read: dose: 150.0 mg/kg/injection, schedule: Q04DX003 (ip), vehicle: saline.
The mark [9] stands for this setting: dose: 300.0 mg/kg/injection, schedule: Q04DX003 (ip), vehicle: saline.

As for `Nc1nc(N)c2cc(CNc3ccc(C(=O)NC(CC(=O)O)CC(=O)O)cc3)ccc2n1`, the T/C was 103 % of control (dose: 150.0 mg/kg/injection, schedule: Q04DX003 (sc), vehicle: Klucel (hydroxypropylcellulose) (HPC)); 86 % of control (dose: 300.0 mg/kg/injection, schedule: Q04DX003 (sc), vehicle: Klucel (hydroxypropylcellulose) (HPC)); 91 % of control (dose: 600.0 mg/kg/injection, schedule: Q04DX003 (sc), vehicle: Klucel (hydroxypropylcellulose) (HPC)); 101 % of control (dose: 1200.0 mg/kg/injection, schedule: Q04DX003 (sc), vehicle: Klucel (hydroxypropylcellulose) (HPC)).

For `O=C1[C@@H]2C3C=CC([C@H]4C(=O)N(CO)C(=O)[C@@H]34)[C@@H]2C(=O)N1CO`, the T/C is 78 % of control (dose: 100.0 mg/kg/injection, schedule: Q04DX003 (ip), vehicle: Klucel (hydroxypropylcellulose) (HPC)) and 52 % of control (dose: 200.0 mg/kg/injection, schedule: Q04DX003 (ip), vehicle: Klucel (hydroxypropylcellulose) (HPC)).

Turning to `CC1(C)OCC2OC=CC(=O)C2O1` (centres undefined), the T/C runs as follows: (dose: 150.0 mg/kg/injection, schedule: Q04DX003 (sc), vehicle: saline) 110 % of control; (dose: 300.0 mg/kg/injection, schedule: Q04DX003 (sc), vehicle: saline) 97 % of control; (dose: 600.0 mg/kg/injection, schedule: Q04DX003 (sc), vehicle: saline) 74 % of control.

Turning to `COc1ccc(C(C)c2cc3c(cc2OC)OCO3)cc1` (centres undefined), the T/C by setting is: (dose: 12.5 mg/kg/injection, schedule: Q04DX003 (ip), vehicle: saline with Tween-80) 88 % of control; (dose: 25.0 mg/kg/injection, schedule: Q04DX003 (ip), vehicle: saline with Tween-80) 79 % of control; under setting [1], 83 % of control; under setting [2], 53 % of control.

For the compound `COc1ccc(O)cc1`, the T/C is, setting by setting: under setting [1], 76 % of control; under setting [2], 87 % of control; (dose: 200.0 mg/kg/injection, schedule: Q04DX003 (ip), vehicle: saline with Tween-80) 79 % of control; (dose: 400.0 mg/kg/injection, schedule: Q04DX003 (ip), vehicle: saline with Tween-80) 53 % of control.

Take `CCN(CC)CC(C)(C)C(=O)/C=C/c1ccc(/C=C/C(=O)C(C)(C)CN(CC)CC)cc1`: the T/C (dose: 60.0 mg/kg/injection, schedule: Q04DX003 (ip), vehicle: saline) is 67 % of control.

For `[Cl][Hg][Cl]`, under “dose: 5.0 mg/kg/injection, schedule: Q04DX003 (ip), vehicle: saline”, the T/C is 67 % of control.

As for `C#CCN(Cc1ccc2nc(N)[nH]c(=O)c2c1)c1ccc(C(=O)NC(CCC(=O)O)C(=O)O)cc1` (centres undefined), the T/C is 111 % of control (dose: 75.0 mg/kg/injection, schedule: Q04DX003 (ip), vehicle: water); 74 % of control (dose: 150.0 mg/kg/injection, schedule: Q04DX003 (ip), vehicle: water); 72 % of control (dose: 300.0 mg/kg/injection, schedule: Q04DX003 (ip), vehicle: water).

Consider `CC1=C[P+](c2ccccc2)(c2ccccc2)C=C(c2ccccc2)O1`, for which, under “dose: 0.75 mg/kg/injection, schedule: Q04DX003 (ip), vehicle: saline”, the T/C is 124 % of control.

For `O=C1N[C@H]2[C@H](O)[C@H](O)[C@@H](O)[C@H](O)[C@@H]2c2cc3c(c(O)c21)OCO3`, the T/C (dose: 12.5 mg/kg/injection, schedule: Q04DX003 (ip), vehicle: saline + alcohol) is 72 % of control.

Regarding `O=C(NC(Cc1ccc(I)cc1)C(=O)O)c1cccc(Br)c1` (centres undefined), the T/C is, setting by setting: (dose: 150.0 mg/kg/injection, schedule: Q04DX003 (ip), vehicle: Klucel (hydroxypropylcellulose) (HPC)) 57 % of control; (dose: 300.0 mg/kg/injection, schedule: Q04DX003 (ip), vehicle: Klucel (hydroxypropylcellulose) (HPC)) 72 % of control; (dose: 600.0 mg/kg/injection, schedule: Q04DX003 (ip), vehicle: Klucel (hydroxypropylcellulose) (HPC)) 76 % of control.

`C=CC1(C)CC(=O)C2(O)C(C)(O1)C(OC(C)=O)C(O)C1C(C)(C)CCC(O)C12C` (centres undefined): the T/C by setting is: (dose: 8.0 mg/kg/injection, schedule: Q04DX003 (ip), vehicle: DMSO) 159 % of control; (dose: 16.0 mg/kg/injection, schedule: Q04DX003 (ip), vehicle: DMSO) 100 % of control and 115 % of control; (dose: 64.0 mg/kg/injection, schedule: Q04DX003 (ip), vehicle: DMSO) 109 % of control.

Consider `Cc1ccc(C2=CSC3=NCCN23)cc1Cl`, for which the T/C (dose: 37.5 mg/kg/injection, schedule: Q04DX003 (ip), vehicle: saline) was 85 % of control.

`O=[N+]([O-])O.[Ga]`: the T/C is, setting by setting: under setting [3], 61 % of control; under setting [4], 67 % of control; (dose: 800.0 mg/kg/injection, schedule: Q04DX003 (sc), vehicle: saline) 81 % of control; (dose: 1600.0 mg/kg/injection, schedule: Q04DX003 (sc), vehicle: saline) 74 % of control.

On to `CC(C)(C[NH-])C[NH-].[Cl][Pt+2][Cl]`, for which the T/C by setting is: (dose: 1.5 mg/kg/injection, schedule: Q04DX003 (ip), vehicle: water) 56 % of control; (dose: 6.0 mg/kg/injection, schedule: Q04DX003 (ip), vehicle: water) 2 % of control and 3 % of control.

Consider `Brc1c(NC2=NCCN2)ccc2nccnc12`, for which the T/C reads like this: (dose: 50.0 mg/kg/injection, schedule: Q04DX003 (sc), vehicle: saline) 69 % of control; (dose: 100.0 mg/kg/injection, schedule: Q04DX003 (sc), vehicle: saline) 57 % of control; under setting [3], 41 % of control; under setting [4], 23 % of control.

`CCOC1=Cc2c(oc3c(C(C)(C)C)cc(OCC)cc23)OC(C(C)(C)C)=C1`: the T/C (dose: 37.5 mg/kg/injection, schedule: Q04DX003 (sc), vehicle: saline with Tween-80) was 94 % of control; the T/C (dose: 75.0 mg/kg/injection, schedule: Q04DX003 (sc), vehicle: saline with Tween-80) is 98 % of control; the T/C (dose: 150.0 mg/kg/injection, schedule: Q04DX003 (sc), vehicle: saline with Tween-80) is 121 % of control; the T/C under setting [5] was 92 % of control and 111 % of control; the T/C under setting [6] is 77 % of control; the T/C (dose: 2400.0 mg/kg/injection, schedule: Q04DX003 (sc), vehicle: saline with Tween-80) was 73 % of control.

For the compound `CCOC(=O)[C@]1(Br)CC[C@@]1(Br)C(=O)OCC`, the T/C is, setting by setting: under setting [5], 99 % of control; under setting [6], 96 % of control; (dose: 1200.0 mg/kg/injection, schedule: Q04DX003 (sc), vehicle: saline with Tween-80) 94 % of control.

Regarding `COC(=Nc1ccccc1)SSC(C)C`, the T/C under setting [5] is 90 % of control and the T/C under setting [6] is 99 % of control.

`C[C@]12CC[C@H]3[C@@H](CCC4=C[C@@H](OC5OCC(OC6OC(CO)C(O)C(O)C6O)C(O)C5O)CC[C@@]43C=O)[C@@]1(O)CCC2C1=CC(=O)OC1` (some centres undefined): under setting [7], the T/C was 118 % of control.

On to `CC(=O)c1c(O)c(C)c(O)c2c1OC1=CC(=O)C(C(C)=O)C(=O)C12C` (centres undefined), for which the T/C (dose: 200.0 mg/kg/injection, schedule: Q01DX010 (sc), vehicle: sodium bicarbonate) was 96 % of control and the T/C (dose: 400.0 mg/kg/injection, schedule: Q01DX010 (sc), vehicle: sodium bicarbonate) was 72 % of control.

Turning to `O=NN(CCCl)C(=O)NCCCl`, the T/C was 60 % of control and 74 % of control (dose: 12.0 mg/kg/injection, schedule: Q04DX003 (ip), vehicle: saline + alcohol); 30 % of control under setting [7]; 27 % of control and 49 % of control (dose: 18.0 mg/kg/injection, schedule: Q04DX003 (ip), vehicle: saline + alcohol); 1 % of control (dose: 30.0 mg/kg/injection, schedule: Q04DX003 (sc), vehicle: Klucel (hydroxypropylcellulose) (HPC)).

`O=c1[nH]cnc2c1nnn2C1OC(CO)C(O)C1O` (centres undefined): the T/C under setting [8] is 18 % of control and 32 % of control; the T/C (dose: 150.0 mg/kg/injection, schedule: Q04DX003 (ip), vehicle: suspension in saline) is 11 % of control and 24 % of control; the T/C under setting [9] is 17 % of control and 19 % of control; the T/C (dose: 300.0 mg/kg/injection, schedule: Q04DX003 (ip), vehicle: suspension in saline) was 10 % of control and 20 % of control; the T/C (dose: 600.0 mg/kg/injection, schedule: Q04DX003 (ip), vehicle: saline) was 8 % of control and 13 % of control; the T/C (dose: 600.0 mg/kg/injection, schedule: Q04DX003 (ip), vehicle: suspension in saline) was 9 % of control and 13 % of control. For the same compound, the T/C runs as follows: (dose: 1200.0 mg/kg/injection, schedule: Q04DX003 (ip), vehicle: saline) 9 % of control and 11 % of control; (dose: 1200.0 mg/kg/injection, schedule: Q04DX003 (ip), vehicle: suspension in saline) 8 % of control and 12 % of control.

As to `O=C(Oc1ccccc1)c1cc(O)c(O)c(O)c1`, the T/C was 101 % of control under setting [8] and 55 % of control under setting [9].
